Experimental data reported in ChEMBL document CHEMBL5584293, “Discovery and evaluation of novel spiroheterocyclic protective agents via a SIRT1 upregulation mechanism in cisplatin-induced premature ovarian failure” (Bioorg Med Chem, 2024).
Activity calls are given as the source filed them. No cut-off for these calls is given here.

What was measured:
NRK = experiment: Cytotoxicity against rat NRK cells assessed as cell viability at 50 uM incubated for 48 hrs by MTT assay; assay type: toxicity, cell-based
[1] = Cytotoxicity against human PDL cells assessed as cell viability at 50 uM incubated for 48 hrs by MTT assay; assay type: toxicity, cell-based
[2] = Cytotoxicity against human MIHA cells assessed as cell viability at 50 uM incubated for 48 hrs by MTT assay; assay type: toxicity, cell-based
KGN = experiment: Protective effect against cisplatin-induced injury in human KGN cells assessed as cell survival at 5 uM incubated for 48 hrs by MTT assay; assay type: functional, cell-based

Row | Compound | Activity (KGN) | further results
1 | CN1C[C@H](c2ccccc2)[C@H](C(=O)/C=C/c2ccccc2)[C@]12C(=O)Nc1ccccc12 |  | Activity (NRK): Toxic; Activity [1]: Toxic; Activity [2]: Toxic
2 | N=C(N)NCCCC1N[C@@]2(C(=O)c3cccc4cccc2c34)[C@@]2(CCC/C(=C\c3ccccc3)C2=O)[C@H]1c1ccccc1 (stereo partly specified) | inactive | 
3 | CN1C[C@H](c2ccccc2)[C@]2(CCC/C(=C\c3ccccc3)C2=O)[C@]12C(=O)Nc1ccc(Cl)cc12 |  | Activity (NRK): Non-Toxic; Activity [1]: Non-Toxic; Activity [2]: Non-Toxic
4 | COc1ccc(/C=C2\CCC[C@@]3(C2=O)[C@@H](c2ccc(OC)c(O)c2)C(C)N[C@@]32C(=O)c3cccc4cccc2c34)cc1O (stereo partly specified) | inactive | 
5 | Cc1ccc(/C=C2\CCC[C@@]3(C2=O)[C@@H](c2ccc(C)s2)C(C)N[C@@]32C(=O)c3cccc4cccc2c34)s1 (stereo partly specified) | Active | 
6 | CN1C[C@H](c2ccccc2)[C@]2(CN(C(=O)OC(C)(C)C)C/C(=C\c3ccccc3)C2=O)[C@]12C(=O)Nc1ccccc12 |  | Activity (NRK): Non-Toxic; Activity [1]: Non-Toxic; Activity [2]: Non-Toxic
7 | CC1N[C@@]2(C(=O)c3cccc4cccc2c34)[C@@]2(CCC/C(=C\N3CCOCC3)C2=O)[C@H]1N1CCOCC1 (stereo partly specified) | Active | 
8 | CC1N[C@@]2(C(=O)c3cccc4cccc2c34)[C@@]2(CCC/C(=C\c3ccc(O)cc3)C2=O)[C@H]1c1ccc(O)cc1 (stereo partly specified) | inactive | 
9 | CC(O)C1N[C@@]2(C(=O)c3cccc4cccc2c34)[C@@]2(CCC/C(=C\c3ccccc3)C2=O)[C@H]1c1ccccc1 (stereo partly specified) | Active | 
10 | CCOc1ccc(/C=C2\CCC[C@@]3(C2=O)[C@@H](c2ccc(OCC)c(OCC)c2)C(C)N[C@@]32C(=O)c3cccc4cccc2c34)cc1OCC (stereo partly specified) | inactive | 
11 | CN1C[C@H](c2ccccc2)C2(CN(C(=O)OC(C)(C)C)C/C(=C\c3ccccc3)C2=O)[C@]12C(=O)c1cccc3cccc2c13 (single isomer, unassigned) |  | Activity (NRK): Non-Toxic; Activity [1]: Non-Toxic; Activity [2]: Non-Toxic
12 | O=C1c2cccc3cccc(c23)[C@]12NC(Cc1c[nH]cn1)[C@H](c1ccccc1)[C@]21CCC/C(=C\c2ccccc2)C1=O (stereo partly specified) | inactive | 
13 | CC1N[C@@]2(C(=O)c3cccc4cccc2c34)[C@@]2(CCC/C(=C\c3ccccc3Br)C2=O)[C@H]1c1ccccc1Br (stereo partly specified) | Active | 
14 | CC1N[C@@]2(C(=O)c3cccc4cccc2c34)[C@@]2(CCC/C(=C\c3ccccc3Cl)C2=O)[C@H]1c1ccccc1Cl (stereo partly specified) | Active | 
15 | CC1N[C@@]2(C(=O)c3cccc4cccc2c34)[C@@]2(CCC/C(=C\c3cc(F)cc(F)c3)C2=O)[C@H]1c1cc(F)cc(F)c1 (stereo partly specified) | inactive | 
16 | CC1N[C@@]2(C(=O)c3cccc4cccc2c34)[C@@]2(CCC/C(=C\c3cccc(O)c3)C2=O)[C@H]1c1cccc(O)c1 (stereo partly specified) | inactive | 
17 | CN1C[C@H](c2ccccc2)[C@]2(COC/C(=C\c3ccccc3)C2=O)[C@]12C(=O)Nc1ccc(Cl)cc12 |  | Activity (NRK): Non-Toxic; Activity [1]: Non-Toxic; Activity [2]: Non-Toxic
18 | CC1N[C@@]2(C(=O)c3cccc4cccc2c34)[C@@]2(CCC/C(=C\c3ccccc3C(F)(F)F)C2=O)[C@H]1c1ccccc1C(F)(F)F (stereo partly specified) | inactive | 
19 | CC1N[C@@]2(C(=O)c3cccc4cccc2c34)[C@@]2(CCC/C(=C\c3ccc(Cl)c(Cl)c3)C2=O)[C@H]1c1ccc(Cl)c(Cl)c1 (stereo partly specified) | inactive | 
20 | O=C1c2cccc3cccc(c23)[C@]12NC(Cc1ccc(O)cc1)[C@H](c1ccccc1)[C@]21CCC/C(=C\c2ccccc2)C1=O (stereo partly specified) | inactive | 
21 | CC1N[C@@]2(C(=O)c3cccc4cccc2c34)[C@@]2(CCC/C(=C\c3ccc(Cl)cc3)C2=O)[C@H]1c1ccc(Cl)cc1 (stereo partly specified) | Active | 
22 | CC1N[C@@]2(C(=O)c3cccc4cccc2c34)[C@@]2(CCC/C(=C\c3ccc(O)c(O)c3)C2=O)[C@H]1c1ccc(O)c(O)c1 (stereo partly specified) | inactive | 

Row | Compound | Activity (KGN) | further results
23 | CC1N[C@@]2(C(=O)c3cccc4cccc2c34)[C@@]2(CCC/C(=C\c3ccc(Cl)cc3Cl)C2=O)[C@H]1c1ccc(Cl)cc1Cl (stereo partly specified) | inactive | 
24 | CN1C[C@H](c2ccccc2)[C@H](C(=O)/C=C/c2ccccc2)[C@]12C(=O)Nc1ccc(Cl)cc12 |  | Activity (NRK): Toxic; Activity [1]: Toxic; Activity [2]: Toxic
25 | CC1N[C@@]2(C(=O)c3cccc4cccc2c34)[C@@]2(CCC/C(=C\c3cc(Br)cs3)C2=O)[C@H]1c1cc(Br)cs1 (stereo partly specified) | Active | 
26 | COc1ccccc1/C=C1\CCC[C@@]2(C1=O)[C@@H](c1ccccc1OC)C(C)N[C@@]21C(=O)c2cccc3cccc1c23 (stereo partly specified) | inactive | 
27 | CSCCC1N[C@@]2(C(=O)c3cccc4cccc2c34)[C@@]2(CCC/C(=C\c3ccccc3)C2=O)[C@H]1c1ccccc1 (stereo partly specified) | inactive | 
28 | NC(=O)CCC1N[C@@]2(C(=O)c3cccc4cccc2c34)[C@@]2(CCC/C(=C\c3ccccc3)C2=O)[C@H]1c1ccccc1 (stereo partly specified) | inactive | 
29 | O=C(O)CCC1N[C@@]2(C(=O)c3cccc4cccc2c34)[C@@]2(CCC/C(=C\c3ccccc3)C2=O)[C@H]1c1ccccc1 (stereo partly specified) | inactive | 
30 | CC1N[C@@]2(C(=O)c3cccc4cccc2c34)[C@@]2(CCC/C(=C\c3ccc(Cl)c(Br)c3)C2=O)[C@H]1c1ccc(Cl)c(Br)c1 (stereo partly specified) | inactive | 
31 | CCOc1ccc(/C=C2\CCC[C@@]3(C2=O)[C@@H](c2ccc(OCC)cc2)C(C)N[C@@]32C(=O)c3cccc4cccc2c34)cc1 (stereo partly specified) | inactive | 
32 | CC1N[C@@]2(C(=O)c3cccc4cccc2c34)[C@@]2(CCC/C(=C\c3ccc(Br)o3)C2=O)[C@H]1c1ccc(Br)o1 (stereo partly specified) | Active | 
33 | O=C1c2cccc3cccc(c23)[C@]12NC(CO)[C@H](c1ccccc1)[C@]21CCC/C(=C\c2ccccc2)C1=O (stereo partly specified) | Active | 
34 | CC(C)C1N[C@@]2(C(=O)c3cccc4cccc2c34)[C@@]2(CCC/C(=C\c3ccccc3)C2=O)[C@H]1c1ccccc1 (stereo partly specified) | inactive | 
35 | COc1ccc(/C=C2\CCC[C@@]3(C2=O)[C@@H](c2ccc(OC)cc2OC)C(C)N[C@@]32C(=O)c3cccc4cccc2c34)c(OC)c1 (stereo partly specified) | inactive | 
36 | CC1N[C@@]2(C(=O)c3cccc4cccc2c34)[C@@]2(CCC/C(=C\c3ccc4ccccc4c3)C2=O)[C@H]1c1ccc2ccccc2c1 (stereo partly specified) | Active | 
37 | O=C1c2cccc3cccc(c23)[C@]12NC(Cc1ccccc1)[C@H](c1ccccc1)[C@]21CCC/C(=C\c2ccccc2)C1=O (stereo partly specified) | Active | 
38 | COc1cc(/C=C2\CCC[C@@]3(C2=O)[C@@H](c2ccc(O)c(OC)c2)C(C)N[C@@]32C(=O)c3cccc4cccc2c34)ccc1O (stereo partly specified) | inactive | 
39 | O=C1c2cccc3cccc(c23)[C@]12NC(Cc1c[nH]c3ccccc13)[C@H](c1ccccc1)[C@]21CCC/C(=C\c2ccccc2)C1=O (stereo partly specified) | Active | 
40 | O=C1c2cccc3cccc(c23)[C@]12N1CCC(O)C1[C@H](c1ccccc1)[C@]21CCC/C(=C\c2ccccc2)C1=O (stereo partly specified) | Active | 
41 | NC(=O)CC1N[C@@]2(C(=O)c3cccc4cccc2c34)[C@@]2(CCC/C(=C\c3ccccc3)C2=O)[C@H]1c1ccccc1 (stereo partly specified) | Active | 
42 | CC1N[C@@]2(C(=O)c3cccc4cccc2c34)[C@@]2(CCC/C(=C\c3ccc(Br)cc3)C2=O)[C@H]1c1ccc(Br)cc1 (stereo partly specified) | Active | 
43 | CCC(C)C1N[C@@]2(C(=O)c3cccc4cccc2c34)[C@@]2(CCC/C(=C\c3ccccc3)C2=O)[C@H]1c1ccccc1 (stereo partly specified) | inactive | 
44 | CC(C)CC1N[C@@]2(C(=O)c3cccc4cccc2c34)[C@@]2(CCC/C(=C\c3ccccc3)C2=O)[C@H]1c1ccccc1 (stereo partly specified) | inactive | 
